Measurements as given in US20140024653A1, “COMPOSITIONS AND METHODS FOR TREATING CANCER USING PI3K INHIBITOR AND MEK INHIBITOR” (priority 2011, published 2014).
Entries after “also recorded” stand apart in the source; their conditions may differ. Where two headings read alike, the source gives them in different places.

Assays:
[1] = system: panel of 81 cancer cell lines; test: SRB cell growth assay, 72 h, cell line panel; type: cell-based, human
A673 = test: SRB cell growth assay, 72 h; type: cell-based, human; conditions: single agent; for activity (cell growth inhibition): up to 50 μM
PANC1 = test: SRB cell growth assay, 72 h; type: cell-based, human; conditions: single agent
BT20 = test: SRB cell growth assay, 72 h; type: cell-based, human; conditions: single agent
DLD1 = test: SRB cell growth assay, 72 h; type: cell-based, human; conditions: single agent
DU145 = test: SRB cell growth assay, 72 h; type: cell-based, human; conditions: single agent
CASKI = test: SRB cell growth assay, 72 h; type: cell-based, human; conditions: single agent
EJ28 = test: SRB cell growth assay, 72 h; type: cell-based, human; conditions: single agent
HCT116 = test: SRB cell growth assay, 72 h; type: cell-based, human
A549 = test: SRB cell growth assay, 72 h; type: cell-based, human; conditions: for GI50: Homo sapiens
SKBR3 = test: SRB cell growth assay, 72 h; type: cell-based, human
MDAMB468 = test: SRB cell growth assay, 72 h; type: cell-based, human
Procedure: (§1) Cell growth and treatment were performed in 96-well microtitre plates CELLSTAR® (Greiner Bio-One, Germany). Cells harvested from exponential phase cultures by trypsinization were plated in 150 μl of media at optimal seeding densities. The optimal seeding densities for each cell line were determined to ensure exponential growth for the duration of the experiment. All cells growing without anticancer agents were sub-confluent by the end of the treatment as determined by visual inspection.
(§2) 150 μl of cells, after a 24-hour pre-growth period, were treated by mixing with 50 μl of the compound containing media (resulting in a final DMSO concentration of 0.1%). The cells were allowed to grow at 37° C. for 72 hours. In addition, all experiments contained a few plates with cells that were processed for measurement immediately after the 24 hours recovery period. These plates contained information about the cell number that existed before treatment, at time zero, and served to calculate the cytotoxicity.
(§3) After treatment, cells were precipitated by addition of 10% TCA. Prior to fixation, the media was aspirated as described. After an hour of incubation at 4° C., the plates were washed two times with 400 μl of deionized water. Cells were then stained with 100 μl of a 0.08% wt/v SRB. The plates were allowed to sit for at least 30 min. and washed six times with 1% acetic acid to remove unbound stain. The plates were left to dry at room temperature and bound SRB was solubilized with 100 μl of 10 mM Tris base. Measurement of optical density was performed at 560 nm on a Victor 2 plate reader (Perkin Elmer, Germany). The SRB values for A375 and H460 cell lines were near to saturation (2.5 OD units) due to the high protein content of these cells, but not cell confluence. The measurements for these cells were performed at 520 nm instead of 560 nm.
(§4) Using these measurements, cellular responses can be calculated for incomplete inhibition of cell growth (GI), complete inhibition of cell growth (T GI) and net loss of cells (LC) due to compound activity. […] This is the drug concentration causing a 50% reduction compared to the net protein increase in control cells during the drug incubation period. In other words, GI50 is IC50 corrected for time zero. Similar to IC90, calculated GI90 values are also reported for all compounds tested. TGI was calculated from Ti=Tz. […] It was calculated as 100×[(Ti−Tz)/Tz]=−50. However, due to 72 hours treatment, low cell seeding density was required and LC50 could rarely be achieved.

COLO678 = test: SRB cell growth assay, 72 h; type: cell-based; conditions: Homo sapiens
Procedure: as §1, §2, §3, §4

[2] = system: human primary colon tumors CR-LRB-009C; test: antitumor activity against subcutaneous CR-LRB-009C xenografts; type: in vivo; conditions: for tolerability: as single agents or used in combination
Procedure: The human primary colon carcinoma CR-LRB-009C tumor model was established by implanting (SC) small tumor fragments and was maintained in SCID female mice using serial passages.
Treatments were administered on measurable tumors. […] Mice were checked daily, and adverse clinical reactions noted.
Animal body weights included the tumor weight.
The primary efficacy end points are ΔT/ΔC, percent median regression, partial and complete regressions (PR and CR). Statistical analyses were performed on SAS system release 8.2 for SUN4 via Everstat V5 software and SAS 9.2 software. A probability less than 5% (p<0.05) was considered as significant.

[3] = system: human colon carcinoma HCT 116
Procedure: Mice were over 18 g at start of treatment after an acclimatization time of at least 5 days. […] The mice were housed on a 12 hours light/dark cycle.
Human colon carcinoma HCT 116 cells were purchased at American Type Culture Collection [(ATCC), Rockville, Md., USA). The HCT 116 cells were cultured in Dulbecco's modified Eagle's medium (DMEM) (Invitrogen).
The animals required to begin a given experiment were pooled and implanted monolaterally on day 0. Treatments were administered on measurable tumors. The solid tumors were allowed to grow to the desired volume range (animals with tumors not in the desired range were excluded). The mice were then pooled and unselectively distributed to the various treatment and control groups. […] The dosages are expressed in mg/kg, based on the body weight at start of therapy. Mice were checked daily, and adverse clinical reactions noted. Each group of mice was weighed as a whole daily until the weight nadir was reached. Then, groups were weighed once to thrice weekly until the end of the experiment. Tumors were measured with a caliper 2 to 3 times weekly until final sacrifice for sampling time, tumor reached 2000 mm^3 or until the animal died (whichever comes first). Solid tumor volumes were estimated from two-dimensional tumor measurements and calculated according to the following equation:
Changes in tumor volume for each treated (T) and control (C) group were calculated for each tumor by subtracting the tumor volume on the day of first treatment (staging day) from the tumor volume on the specified observation day. The median ΔT is calculated for the treated group, and the median ΔC is calculated for the control group. Then the ratio ΔT/ΔC is calculated and expressed as a percentage. The dose is considered as therapeutically active when ΔT/ΔC is lower than 40% and very active when ΔT/ΔC is lower than 10%.
The percent of tumor regression is defined as the % of tumor volume decrease in the treated group at a specified observation day compared to its volume on the first day of treatment. At a specific time point and for each animal, % regression is calculated. The median % regression is then calculated for the group using the following equation:
Partial regression: Regressions are defined as partial if the tumor volume decreases to 50% of the tumor volume at the start of treatment.
Complete regression: The CR is achieved when tumor volume=0 mm^3 (CR is considered when tumor volume cannot be recorded).

[4] = (1) 20 mg/kg PO daily days 11-21
[5] = study 1, (1) 5 mg/kg PO daily days 11-18
[6] = study 2, (1) 10 mg/kg PO daily days 11-18 (day 17: 20 mg/kg)
[7] = study 2, (1) 20 mg/kg PO daily days 11-18
[8] = study 3, (1) 10 mg/kg PO daily days 11-20
[9] = study 3, (1) 20 mg/kg PO daily days 11-20
[10] = study 4, (1) 10 mg/kg PO daily days 11-20
[11] = study 4, (1) 20 mg/kg PO daily days 11-20
[12] = (2b) 20 mg/kg PO daily days 11-21
[13] = study 1, (2b) 30 mg/kg PO daily days 11-18
[14] = study 2, (2b) 20 mg/kg PO daily days 11-18
[15] = study 4, (2b) 20 mg/kg PO daily days 11-20

## O=C(NC[C@H](O)CO)c1ccncc1Nc1ccc(I)cc1F [Compound (1), N—((S)-2,3-dihydroxypropyl)-3-(2-fluoro-4-iodo-phenylamino)isonicotinamide]
[1]; 82 cell lines
  cell lines sensitive below 100 nM: 27 of 82
[1]; Homo sapiens, median of cell lines tested, read-out: median sensitivity
  IC50: 490 nM
[1]; Homo sapiens, sensitive cell lines of the panel, read-out: Efficacy in sensitive cell lines
  IC50: 4 to 5 nM
[1]; panel
  difference between the most and least sensitive cell lines: 10.000 fold
A673
  z-score MSC6369: 3.00
  activity (cell growth inhibition): minimal activity; also recorded: non-sensitive
PANC1
  z-score MSC6369: 3.00
PANC1; up to 50 μM
  activity (cell growth inhibition): minimal activity
BT20
  z-score MSC6369: 0.02
DLD1
  z-score MSC6369: 0.19
DU145
  z-score MSC6369: 0.73
CASKI
  z-score MSC6369: 1.55
EJ28
  z-score MSC6369: −0.68
HCT116; single agent
  z-score MSC6369: −0.32
A549
  GI50: 300 nM
A549; single agent
  z-score MSC6369: −0.11
SKBR3; single agent
  sensitivity: non-sensitive
  z-score MSC6369: 0.69
MDAMB468; single agent, up to 50 μM
  activity (cell growth inhibition): minimal activity
COLO678; COLO-678, most sensitive cell lines
  IC50: 4.8 to 8 nM
[2]; [4]
  Average body weight change in % per mouse at nadir: −7.7 (20) %
  Drug death: 0/7
  Regressions Complete: 0/7
  Regressions Partial: 0/7
[2]; (1) 20 mg/kg PO daily days 11-21, 20 mg/kg
  Median ΔT/ΔC in % day 21: 53%
[2]
  tolerability: tolerated, inducing some BWL but not reaching toxicity
[3]; [5]
  Average body weight change in % per mouse at nadir: −3.4 (14) %
  Drug death: 0/7
  Regressions Complete: 0/7
  Regressions Partial: 0/7
[3]; study 1, (1) 5 mg/kg PO daily days 11-18, 5 mg/kg
  Median ΔT/ΔC in % day 18: 70%
[3]; study 1, as single agents or used in combination
  tolerability: well-tolerated, inducing minimal BWL
[3]; [6]
  Average body weight change in % per mouse at nadir: −2.2 (18) %
  Drug death: 0/7
  Median ΔT/ΔC in % day 18: 20%
  Regressions Complete: 0/7
  Regressions Partial: 0/7
[3]; [7]
  Average body weight change in % per mouse at nadir: −1.1 (15) %
  Drug death: 0/7
  Median ΔT/ΔC in % day 18: 22%
  Regressions Complete: 0/7
  Regressions Partial: 0/7
[3]; study 2, as single agents
  tolerability: well-tolerated, inducing minimal BWL
[3]; [8]
  Average body weight change in % per mouse at nadir: −4.9 (20) %
  Drug death: 0/10
  Regressions Complete: 0/10
  Regressions Partial: 0/10
[3]; study 3, (1) 10 mg/kg PO daily days 11-20, 10 mg/kg
  Median ΔT/ΔC in % day 20: 43%
[3]; [9]
  Average body weight change in % per mouse at nadir: −3.6 (19) %
  Drug death: 0/10
  Median ΔT/ΔC in % day 20: 34%
  Regressions Complete: 0/10
  Regressions Partial: 0/10
[3]; study 3, as single agents
  tolerability: well-tolerated, inducing minimal BWL
[3]; [10]
  Average body weight change in % per mouse at nadir: −2.3 (13) %
  Drug death: 0/10
  Regressions Complete: 0/10
  Regressions Partial: 0/10
[3]; study 4, (1) 10 mg/kg PO daily days 11-20, 10 mg/kg
  Median ΔT/ΔC in % day 20: 53%
[3]; [11]
  Average body weight change in % per mouse at nadir: −4.1 (18) %
  Drug death: 0/10
  Regressions Complete: 0/10
  Regressions Partial: 0/10
[3]; study 4, (1) 20 mg/kg PO daily days 11-20, 20 mg/kg
  Median ΔT/ΔC in % day 20: 41%
[3]; study 4, as single agents
  tolerability: well-tolerated, inducing minimal BWL

## CCn1c(=O)c(-c2ccn[nH]2)cc2c(C)nc(N)nc21 [Compound (2b), 2-amino-8-ethyl-4-methyl-6-(1H-pyrazol-5-yl)pyrido[2,3-d]pyrimidin-7(8H)-one]
[1]; Homo sapiens, all 81 cell lines, log 10-transformed data
  GI50: 1300 to 1400 nM
[1]; panel
  differences in activity between sensitive and insensitive cell lines: 10-20 fold
A673
  z-score MSC0765: 0.96
  activity (cell growth inhibition): non-sensitive
PANC1
  z-score MSC0765: 1.16
BT20
  z-score MSC0765: 0.32
DLD1
  z-score MSC0765: 0.81
DU145
  z-score MSC0765: −0.05
CASKI
  z-score MSC0765: −0.23
EJ28
  z-score MSC0765: 1.25
HCT116; Homo sapiens, HCT-116, non-sensitive, z score >1.5
  GI50: > 4000 nM
HCT116; single agent
  z-score MSC0765: 1.90
A549
  GI50: 1150 nM
A549; single agent
  z-score MSC0765: −0.20
SKBR3; Homo sapiens, SK-BR-3, most sensitive, z-score <−1.5
  GI50: < 500 nM
SKBR3; single agent
  sensitivity: very sensitive
  z-score MSC0765: −2.18
MDAMB468; Homo sapiens, MDA-MB-468, most sensitive, z-score <−1.5
  GI50: < 500 nM
COLO678; COLO-678, non-sensitive, z score >1.5
  GI50: > 4000 nM
[2]; [12]
  Average body weight change in % per mouse at nadir: −7.4 (19) %
  Drug death: 0/7
  Median ΔT/ΔC in % day 21: 51%
  Regressions Complete: 0/7
  Regressions Partial: 0/7
[2]
  tolerability: tolerated, inducing some BWL but not reaching toxicity
[3]; [13]
  Average body weight change in % per mouse at nadir: −6.7 (18) %
  Drug death: 0/7
  Median ΔT/ΔC in % day 18: 77%
  Regressions Complete: 0/7
  Regressions Partial: 1/7
[3]; [14]
  Average body weight change in % per mouse at nadir: −3.7 (15) %
  Drug death: 0/7
  Median ΔT/ΔC in % day 18: 71%
  Regressions Complete: 0/7
  Regressions Partial: 0/7
[3]; study 2, as single agents
  tolerability: well-tolerated, inducing minimal BWL
[3]; [15]
  Average body weight change in % per mouse at nadir: −4.8 (20) %
  Drug death: 0/10
  Regressions Complete: 0/10
  Regressions Partial: 0/10
[3]; study 4, as single agents
  tolerability: well-tolerated, inducing minimal BWL
